Measured values from PubChem BioAssay (NCI).
Converted amounts (≈) assume the structure as drawn. “And” between values parts separate entries of the source, which are not always exact repeats. Equal entries are not always repeated.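 Method: 48-hour compound exposure of cells in 96-well plates, five concentrations, linear interpolation of endpoints. Abbreviation: GI50, concentration required for 50% inhibition of growth. Definition used: TGI = concentration required for complete inhibition of growth.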

Tests used:
Assay in all cases: growth of human tumour cells (NCI), 48 h
UO-31 renal = system: UO-31 renal
RPMI-8226 leukemia = system: RPMI-8226 leukemia
SR leukemia = system: SR leukemia
TK-10 renal = system: TK-10 renal

Structure (SMILES)	TGI (UO-31 renal) [µM]	GI50 (RPMI-8226 leukemia)	TGI (RPMI-8226 leukemia) [µM]	GI50 (SR leukemia) [µg/mL]	GI50 (TK-10 renal) [µg/mL]
COc1ccc(-c2cc(-c3ccccc3)c(C#N)c(=O)n2C2OC(COC(C)=O)C(OC(C)=O)C(OC(C)=O)C2OC(C)=O)cc1 (stereo not given)	> 100	47.3 µM and 11.5 µM	> 100		
CS(=O)(=O)CC(Cc1ccccc1)C(=O)O (stereo not given)				10.6 (≈ 43.7 µM)	92.1 (≈ 380 µM)
